Assay results published in US10857214B2, “Compositions and methods for treating gluten intolerance and disorders arising therefrom” (Codexis, Inc., priority 2015, dated 2020).

Tests used:
[1] = system: 33mer from α-gliadin; test: digestion of 33mer peptide by fluid fractions, MALDI-TOF; type: biochemical
Experimental: Left: Silver-stain SDS-PAGE of fraction 1 containing nepenthesin, and MALDI spectrum of 33mer peptide processed with fraction 1. Right: Silver-stain SDS-PAGE of fraction 2 containing an unknown enzyme, and MALDI spectrum of 33mer peptides processed with fraction 2. MALDI of undigested 33mer in red, digested 33mer in black.
Two proteolytic components were isolated. Activity was retested against a 33mer from α-gliadin using MALDI-TOF. Fractions were also analyzed for protein content using MALDI-TOF (sinapinic acid as matrix), highlighting a single peak at 29 kDa. Fractions enriched in non-specific cleavage properties were further purified using gel filtration and retested for purity and for activity against 33mer.
Fluid protein concentrate was exchanged into 50 mM glycine and subjected to column chromatofocusing with fractionation. Fractions were analyzed for activity using MALDI-TOF (Sciex 5800 TOF/TOF, α-cyano-4-hydroxycinnamic acid as matrix). To test for activity, protein substrates were incubated with aliquots of column fractions at room temperature for 20 minutes and the digests analyzed by MALDI-TOF. Fractions enriched in proline cleavage were manually purified by reversed phase chromatography on Protein MacroTraps (Optimize Technologies). Enzyme was eluted and confirmed active against protein substrates.

[2] = system: crude gliadin; test: crude gliadin slurry clarification (gravimetric analysis, turbidity at 595 nm); type: biochemical, wheat; conditions: 10 g/L crude gliadin slurry, pH 2.5, 37° C.; enzyme alone
Experimental: Inset: temporal profiling of slurry (left to right: 0, 30, 60, 90 min) using the protein-enriched fluid extract. […] Turbidity of the digested gliadin was monitored as absorbance at 595 nm ([…]). Black lines represent the turbidity of the gliadin slurry in the absence of protease. Measurement precision was <3% RSD (n=3). […] Data taken from FIGS. 8A-8C. Values reported as milligrams of gliadin per micromolar enzyme concentration per minute digestion time. […] Digest progress was monitored by gravimetric analysis, optical transmission, SDS-PAGE and mass spectrometry. […] For monitoring with optical transmission, digestion reactions were conducted in 96-well plate with ≥3 replicates of each reaction condition, and turbidity monitored at 595 nm at 37° C. every 2 minutes, for 90 minutes (SpectraMax plate reader, Molecular Devices). […] An aliquot of the reaction mixture was analyzed on an 8% SDS-PAGE gel. The remaining amount was centrifuged and the supernatant was analyzed by mass spectrometry.

[3] = system: α-gliadin peptide 33mer; test: digestion profile of α-gliadin peptide 33mer under dilute conditions, LC-MS; type: biochemical; conditions: equivalent digestion conditions at optimum pH (2 for pepsin, 7 for MX)
Excerpt: Normalized relative abundance measured from LC-MS ion chromatograms, using caffeine as internal standard. Figure discloses SEQ ID NOS 88, 28, and 89-91, respectively, in order of appearance.
Using the pepsin-resistant 33mer, the evolution of peptide products was monitored under dilute conditions.

[4] = system: crude gliadin; test: SDS-PAGE and proteomic LC-MS/MS analysis of crude gliadin digests; type: biochemical, Triticum aestivum
Experimental: Digestions at pH 2.5 and 37° C., for 90 min. All concentrations in μM. M: Molecular weight markers, and gliadin: total crude gliadin in the absence of protease. […] Peptide data from LC-MS/MS runs, with intensities obtained using Protein Deconvolution 1.0. […] A stock gliadin slurry of 20-50 mg/ml was prepared in acidic solution (100 mM glycine HCl, pH 2.5) and briefly sonicated to further break up large particulates and promote suspension. Digestions of 10 mg/mL gliadin slurries were initiated by addition of enzyme (pepsin, fluid enzymes or both) and held at 37° C. with gentle rotation. Digest progress was monitored by gravimetric analysis, optical transmission, SDS-PAGE and mass spectrometry. For gravimetric analysis, digests were quenched by boiling and treated with TCA/chloroform, followed by centrifugation to recover undigested or poorly digested protein. For monitoring with optical transmission, digestion reactions were conducted in 96-well plate with ≥3 replicates of each reaction condition, and turbidity monitored at 595 nm at 37° C. every 2 minutes, for 90 minutes (SpectraMax plate reader, Molecular Devices). The plate was shaken at medium speed briefly between measurements. The digests were quenched after 90 min reaction by boiling for 10 minutes (confirmed to have no impact on digestion profile, a posteriori). An aliquot of the reaction mixture was analyzed on an 8% SDS-PAGE gel. The remaining amount was centrifuged and the supernatant was analyzed by mass spectrometry. Supernatant was analyzed by data-dependent LC-MS/MS, in two 1-hour reversed phase gradient runs, configured for top-10 ion selection using CID in a high/low configuration. In one run, ion selection was restricted to 2+ and higher charge states. In the other run, ion selection was applied to 1+ charge states only. Data from both runs were combined and searched against all UniprotKB/Swiss-Prot entries for gliadin and glutenin from Triticum aestivum (25 proteins), using Mascot v2.3, configured for non-specific digestions and filtered for peptide hits with p<0.05. For estimation of peptide size distribution, all LC-MS spectra were combined and deconvoluted in Protein Deconvolution v1.0, with appropriate settings. For label-free quantitative analysis using the subset of the digest identified in the database search, the hit list was combined with the raw data in Mass Spec Studio and used to generate a set of peptide ion chromatograms, integrated over all isotopes to determine a weight-average intensity for each peptide sequence identified.

[5] = system: crude gliadin digests treated with human transglutaminase-2; test: TG2-induced deamidation of gliadin digestion products; type: biochemical; conditions: 0.1 mg/mL human transglutaminase-2, pH 7.5, 37° C., 90 minutes
Excerpt: Fractional deamidation quantified for all peptides from ion chromatogram intensities; data presented as a ratio, where the antigenic peptide deamidation is normalized to the non-antigenic peptide deamidation at the indicated protease concentration. Antigenic regions defined using the DQ2 criteria, inset table.
Whether enhanced digestion profiles would impact deamidation in antigenic regions was investigated. The recognition of immunodominant peptides by T cells is amplified when these peptides are deamidated in their core binding region by tissue transglutaminase 2 (TG2), particularly at position P4 or P6 in HLA DQ2 associated celiac disease. […] Crude gliadin digests were analyzed for the conversion of non-deamidated peptides to deamidated forms, and sorted all the peptides using a previously published algorithm for the identification of DQ2 binding motifs.
Supernatants from crude gliadin digests were treated with 0.1 mg/mL human transglutaminase-2 (R&D Systems, Cat. 4376-TG-050) in 100 mM Tris-HCl pH 7.5, 2 mM CaCl2 at 37° C. for 90 minutes, and quenched at 95° C. for 15 minutes, following a published protocol. Treated digests were analyzed by data-dependent LC-MS/MS as described above, allowing for variable N and Q deamidation in database searches. […]

[6] = system: NOD DQ8 mice; test: transgenic NOD/HLA-DQ8 mouse model of gliadin sensitivity; conditions: gliadin codigested with pepsin 100:1 and fluid enzyme 264:1 or nepenthesin II 100:1; pepsin alone is positive control

With “pepsin: gastric enzyme (EC 3.4.23.1) used as control protease” the “digestion of 33mer peptide derived from α-gliadin” value [1] was “highly resistant to digestion”, the maximum clarification rate [2] was 0.3 mg/µM/min and the “hydrolysis of 33mer peptide” value [3] was “Neither pepsin nor a bacterial prolyl endoprotease from Myxococcus xanthus (MX) were able to hydrolyse”. The “digestion of total protein of crude gliadin by SDS-PAGE” value ([4]; 10 mg/ml gliadin, pH 2.5, 37° C., 90 min) was “could not be achieved”, the “detected digest product having a molecular weight greater than 4000 Da” value ([4]; 10 mg/ml gliadin, pH 2.5, 37° C., 90 min, high concentrations of pepsin) was 25 wt % and the “average peptide length, label-free, all peptide signals” value ([4]; 10 mg/ml gliadin, pH 2.5, 37° C., 90 min, pepsin 5 μM, fluid extract 0.23 μM) was 19.2 residues. For the same substance, the “weighted average peptide length, identified peptides” value ([4]; pepsin 5 μM, fluid protease 0.46 μM, co-digestion using these two concentrations) was 16.9 residues, the “peptide conversion (deamidation) in antigenic regions compared to non-antigenic regions” value [5] was “over 5.5 times” and the “small intestinal CD3+ intraepithelial lymphocyte (IEL) counts” value [6] was “significant increases”.
